Laboratory results from ChEMBL document CHEMBL1143702, “Synthesis and biological evaluation of (+/-)-abyssinone II and its analogues as aromatase inhibitors for chemoprevention of breast cancer” (J Med Chem, 2007).
pIC50: −log10 of the molar value.

Target: T1, Aromatase (Homo sapiens, UniProt P11511)
T1 sequence (P11511 whole entry): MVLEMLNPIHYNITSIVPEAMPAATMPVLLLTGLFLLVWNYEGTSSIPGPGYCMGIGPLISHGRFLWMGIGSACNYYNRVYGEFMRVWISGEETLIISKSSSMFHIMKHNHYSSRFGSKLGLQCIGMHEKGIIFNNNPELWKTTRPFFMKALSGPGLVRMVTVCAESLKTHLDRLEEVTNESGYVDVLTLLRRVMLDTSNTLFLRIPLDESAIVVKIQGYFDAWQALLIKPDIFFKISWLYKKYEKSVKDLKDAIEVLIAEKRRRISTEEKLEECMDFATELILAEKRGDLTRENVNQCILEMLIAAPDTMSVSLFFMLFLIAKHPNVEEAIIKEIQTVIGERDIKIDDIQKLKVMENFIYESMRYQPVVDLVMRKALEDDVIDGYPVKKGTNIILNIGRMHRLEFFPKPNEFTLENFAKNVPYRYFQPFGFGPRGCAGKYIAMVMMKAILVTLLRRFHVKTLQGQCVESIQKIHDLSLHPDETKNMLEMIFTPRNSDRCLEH
Description: Inhibition of human aromatase

Compound	pIC50
COCOc1ccc(C(=O)/C=C/c2ccc(OCOC)c(CC=C(C)C)c2)c(O)c1	< 3.62
COc1ccc(C(=O)/C=C/c2ccc(OCC=C(C)C)cc2)c(O)c1	< 3.57
